Reference: patent US20170305922A1, “CARM1 INHIBITORS AND USES THEREOF” (Epizyme, Inc., priority 2014, published 2017)

Columns and labels:
Human CARM1 (PRMT4) = target: T1, Human CARM1 (PRMT4) (Homo sapiens, UniProt Q86X55); test: CARM1 enzyme assay on peptide substrates (3H-SAM Flashplate); conditions: Biochemical assay; CARM1 0.25 nM, 3H-SAM 30 nM, peptide 250 nM; read-out: Biochem IC50
T1 construct: Flag-CARM1-His was eluted with 200 ug/ml FLAG peptide in buffer A; made in house; host or cells: HEK 293F cells infected with recombinant baculovirus (pFastBacMam)
T1 sequence (Q86X55 1-585 isoform Q86X55-1): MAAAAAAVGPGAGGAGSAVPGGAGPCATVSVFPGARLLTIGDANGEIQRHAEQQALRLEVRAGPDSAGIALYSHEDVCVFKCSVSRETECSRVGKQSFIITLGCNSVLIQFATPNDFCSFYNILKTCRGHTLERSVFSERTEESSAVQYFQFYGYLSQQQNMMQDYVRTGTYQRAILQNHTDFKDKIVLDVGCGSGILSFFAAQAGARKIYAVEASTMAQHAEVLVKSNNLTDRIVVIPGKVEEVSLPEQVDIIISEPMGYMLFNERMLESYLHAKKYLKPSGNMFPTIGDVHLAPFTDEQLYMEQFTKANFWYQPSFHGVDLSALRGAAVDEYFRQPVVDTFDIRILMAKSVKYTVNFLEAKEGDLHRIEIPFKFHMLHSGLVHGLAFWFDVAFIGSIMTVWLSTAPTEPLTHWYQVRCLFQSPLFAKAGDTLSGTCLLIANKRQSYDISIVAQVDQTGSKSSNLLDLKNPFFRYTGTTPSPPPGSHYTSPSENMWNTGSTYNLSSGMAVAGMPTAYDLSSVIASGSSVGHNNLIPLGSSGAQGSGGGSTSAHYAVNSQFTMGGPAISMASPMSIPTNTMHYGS

[1] = system: asymmetric di-methyl PABP1 in RKO cells; test: RKO methylation assay: In Cell Western (ICW) for asymmetric di-methyl PABP1 (PABP1me2a); conditions: Homo sapiens, RKO, 48 h, Cellular-based (PABP1me2a) ICW (In Cell Western) assay
Summary of the method: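 In-cell western on compound-exposed RKO cells (48 hours): asymmetric di-methyl PABP1 detected by antibody at 800 nm, DNA content by DRAQ5 at 700 nm. Percent inhibition from signal ratios against DMSO (minimum) and 20 μM reference compound (maximum) wells; IC50 curves fitted from triplicates.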

| SMILES | IC50 (Human CARM1 (PRMT4)) [nM] | IC50 [1] [nM] |
| --- | --- | --- |
| CNC[C@@H](O)COc1ccc(Cl)c(-c2nc(-c3c(C)noc3C)c(C)c(N3CC4(CCN(C(=O)OCC(F)F)CC4)C3)n2)c1 [Example 191] | 10.5 | 174 |
| CNC[C@@H](O)COc1ccc(Cl)c(-c2nc(-c3c(C)noc3C)c(C)c(N3CC4(C3)CC3(C4)OCCO3)n2)c1 [Example 276] | 4.92 | 75.7 |
| CNC[C@@H](O)COc1cccc(-c2nc(-c3c(C)cnn3C)c(C)c(N3Cc4cncnc4C3)n2)c1 [Example 60] | 3.9 | 389 |
| CNC[C@@H](O)COc1ccc(Cl)c(-c2nc(-c3c(C)noc3C)c(C)c(N3CC4(CC(C(=O)N5CCC5)C4)C3)n2)c1 [Example 163] | 6.2 | 292 |
| CNC[C@@H](O)COc1ccc(Cl)c(-c2nc(-c3c(C)noc3C)c(C)c(N3CC4(CC(N(C)CC(F)(F)F)C4)C3)n2)c1 [Example 271] | 7.42 | 89.1 |
| CNC[C@@H](O)COc1ccc(Cl)c(-c2nc(CCC3CCN(C(=O)OC)CC3)c(C)c(-c3c(C)noc3C)n2)c1 [Example 107] | 11.2 | 176 |
| CCn1ncc(Cl)c1-c1nc(-c2cc(OC[C@H](O)CNC)ccc2Cl)nc(N2CC3(CCN(C(=O)OC)CC3)C2)c1C [Example 75] | 12.5 | 396 |
| CNC[C@@H](O)COc1cccc(-c2nc(-c3c(C)noc3C)c(C)c(N3CC4(CCN(C(=O)OC)CC4)C3)n2)c1Cl [Example 350] | 37.2 | 7200 |
| CNC[C@@H](O)COc1ccc(Cl)c(-c2nc(-c3c(C)noc3C)c(C)c(N3CC4(CCCN(CC(F)(F)F)C4)C3)n2)c1 [Example 301] | 7.99 | 125 |
| CNC[C@@H](O)COc1ccc(Cl)c(-c2nc(-c3c(C)noc3C)c(C)c(N3CC4(CC(N5CCOCC5)C4)C3)n2)c1 [Example 270] | 4.95 | 269 |
| CNC[C@@H](O)COc1ccc(Cl)c(-c2nc(-c3c(C)noc3C)c(C)c(N3CC4(C3)CC(O)(C(F)(F)F)C4)n2)c1 [Example 213] | 5.4 | 330 |
| CNC[C@@H](O)COc1ccc(Cl)c(-c2nc(-c3c(Cl)cnn3C)c(C)c(N3CC4(CCN(C(=O)OC)CC4)C3)n2)c1 [Example 74] | 9.7 | 207 |
| CNC[C@@H](O)COc1ccc(Cl)c(-c2nc(-c3c(C)c(Cl)nn3C)c(C)c(N3CC4(CCCN(C(=O)OC)C4)C3)n2)c1 [Example 295] | 3.78 | 82.7 |
| CNC[C@@H](O)COc1ccc(Cl)c(-c2nc(-c3c(C)noc3C)c(C)c(N3C[C@H]4C[C@@H]3CN4C(=O)OC)n2)c1 [Example 130] | 5.9 | 960 |
| CNC[C@@H](O)COc1ccc(Cl)c(-c2nc(-c3c(C)noc3C)c(C)c(N3CC4(CCCN(C(=O)OC)C4)C3)n2)c1 [Example 296] | 6.4 | 137 |
| CCn1ncc(C)c1-c1nc(-c2cc(OC[C@H](O)CNC)ccc2Cl)nc(N2Cc3cncnc3C2)c1C [Example 88] | 4.6 | 222 |
| CNC[C@@H](O)COc1ccc(Cl)c(-c2nc(-c3c(C)noc3C)c(C)c(N3Cc4cccnc4C3)n2)c1Cl [Example 150] | 16.2 | 2020 |
| CNC[C@@H](O)COc1ccc(Cl)c(-c2nc(-c3c(C)noc3C)c(C)c(N3CC(C)(C(=O)N(C)C)C3)n2)c1 [Example 188] | 5.2 | 150 |
| CNC[C@@H](O)COc1ccc(Cl)c(-c2nc(-c3c(C)noc3C)c(C)c(N3CC4(CCCN(CC(F)F)C4)C3)n2)c1 [Example 337] | 4.98 | 60 |
| CNC[C@@H](O)COc1ccc(Cl)c(-c2nc(-c3c(C)noc3C)c(C)c(N3CC4(CC(OCCC#N)C4)C3)n2)c1 [Example 287] | 4.46 | 69.1 |
| CNC[C@@H](O)COc1ccc(Cl)c(-c2nc(-c3c(C)noc3C)c(C)c(N3CC4(CCN4C(=O)OC)C3)n2)c1 [Example 98] | 8.4 | 99 |
| CNC[C@@H](O)COc1ccc(Cl)c(-c2nc(-c3c(C)c(Br)nn3C)c(C)c(N3CC4(CN(CCC#N)C4)C3)n2)c1 [Example 298] | 3.11 | 244 |
| CNC[C@@H](O)COc1ccc(Cl)c(-c2nc(-c3c(C)cnn3C)c(C)c(N3Cc4cncnc4C3)n2)c1 [Example 81] | 3.8 | 112 |

Results, then the compound that gave them:

| IC50 (Human CARM1 (PRMT4)) [nM] | IC50 [1] [nM] | SMILES |
| --- | --- | --- |
| 2.9 | 27 | CNC[C@@H](O)COc1ccc(Cl)c(-c2nc(-c3c(C)noc3C)c(C)c(N3Cc4cnc(C)cc4C3)n2)c1 [Example 44] |
| 1.9 | 140 | CNC[C@@H](O)COc1ccc(F)c(-c2nc(-c3c(C)noc3C)c(C)c(N3Cc4cn(C5CC5)nc4C3)n2)c1 [Example 15] |
| 2.8 | 15 | CNC[C@@H](O)COc1ccc(Cl)c(-c2nc(-c3c(C)noc3C)c(C)c(N3Cc4cnc(N5CC(F)(F)C5)nc4C3)n2)c1 [Example 143] |
| 13.7 | 1810 | CNC[C@@H](O)COc1ccc(Cl)c(-c2nc(-c3c(C)noc3C)c(C)c(-n3ncc4c3CN(C(=O)OC)C4)n2)c1 [Example 122] |
| 5.1 | 172 | CNC[C@@H](O)COc1ccc(Cl)c(-c2nc(-c3c(C)noc3C)c(C)c(N3Cc4cn(C5CCOCC5)nc4C3)n2)c1 [Example 136] |
| 11 | 2060 | CNC[C@@H](O)COc1ccc(Cl)c(-c2nc(-c3c(C)noc3C)c(C)c(N3CC4(CCN(C(C)=O)C4)C3)n2)c1 [Example 63] |
| 7.3 | 230 | CNC[C@@H](O)COc1ccc(Cl)c(-c2nc(-c3c(C)noc3C)c(C)c(N3CC4(CCN(S(C)(=O)=O)CC4)C3)n2)c1 [Example 52] |
| 6.2 | 84 | CNC[C@@H](O)COc1ccc(Cl)c(-c2nc(-c3c(C)noc3C)c(C)c(N3CC4(CC(OCCOC)C4)C3)n2)c1 [Example 241] |
| 6.51 | 193 | CNC[C@@H](O)COc1ccc(Cl)c(-c2nc(-c3c(C)noc3C)c(C)c(N3CC(C)(COC)C3)n2)c1 [Example 251] |
| 2.6 | 37 | CCc1cc2c(cn1)CN(c1nc(-c3cc(OC[C@H](O)CNC)ccc3Cl)nc(-c3c(C)noc3C)c1C)C2 [Example 37] |
| 5.36 | 90.9 | CNC[C@@H](O)COc1ccc(Cl)c(-c2nc(-c3c(C)noc3C)c(C)c(N3CC4(CCC(OC)C4)C3)n2)c1 (stereo partly shown) [Example 263] |
| 4.3 | 486 | CC[C@H]1CN(c2nc(-c3cc(OC[C@H](O)CNC)ccc3Cl)nc(-c3c(C)noc3C)c2C)CCN1S(C)(=O)=O [Example 204] |
| 5.2 | 64 | CNC[C@@H](O)COc1ccc(Cl)c(-c2nc(-c3c(C)noc3C)c(C)c(N3CC4(CCC(C#N)CC4)C3)n2)c1 [Example 92] |
| 5.4 | 188 | CNC[C@@H](O)COc1ccc(C(F)(F)F)c(-c2nc(-c3c(C)noc3C)c(C)c(N3Cc4cccnc4C3)n2)c1 [Example 24] |
| 3.3 | 74 | CNC[C@@H](O)COc1ccc(Cl)c(-c2nc(-c3c(C)noc3C)c(C)c(N3CC4(CCC(SC)CC4)C3)n2)c1 [Example 83] |
| 3.4 | 276 | CNC[C@@H](O)COc1ccc(F)c(-c2nc(-c3c(C)noc3C)c(C)c(N3CC4(CC=CCC4)C3)n2)c1 [Example 57] |
| 4.7 | 73 | CNC[C@@H](O)COc1ccc(Cl)c(-c2nc(-c3c(C)noc3C)c(C)c(N3CC4(CC(OC(F)(F)F)C4)C3)n2)c1 [Example 228] |
| 1.42 | 155 | CNC[C@H](O)COc1ccc(Cl)c(-c2nc(-c3c(C)noc3C)c(C)c(N3Cc4cccnc4C3)n2)c1 [Example 293] |
| 1.83 | 29.9 | CNC[C@@H](O)COc1ccc(Cl)c(-c2nc(-c3c(C)noc3C)c(C)c(N3Cc4ccc(N(C)C)nc4C3)n2)c1 [Example 258] |
| 2.1 | 56 | CNC[C@@H](O)COc1ccc(F)c(-c2nc(-c3c(C)noc3C)c(C)c(N3Cc4cnn(C5CC5)c4C3)n2)c1 [Example 16] |
| 3.4 | 66 | CNC[C@@H](O)COc1ccc(Cl)c(-c2nc(-c3c(C)noc3C)c(C)c(N3Cc4cnn(CC(F)F)c4C3)n2)c1 [Example 26] |
| 11.2 | 822 | CNC[C@@H](O)COc1ccc(Cl)c(-c2nc(-c3c(C)noc3C)c(C)c(N3CC4(CC(S(C)(=O)=O)C4)C3)n2)c1 [Example 111] |
| 3.6 | 13 | CNC[C@@H](O)COc1ccc(Cl)c(-c2nc(-c3c(C)noc3C)c(C)c(N3CC4=C(CN(C(=O)OC)C4)C3)n2)c1 [Example 55] |
| 2.1 | 47 | CNC[C@@H](O)COc1ccc(Cl)c(-c2nc(-c3c(C)noc3C)c(C)c(N3Cc4ccnc(C)c4C3)n2)c1 [Example 200] |
